Experimental data as given in patent US11447477B2, “Indoleamine-2,3-dioxygenase inhibitor, the preparative method and the use thereof” (HINOVA PHARMACEUTICALS INC., priority 2017, dated 2022).
pIC50: −log10 of the molar value.

What was measured:
human IDO1 protease = human IDO1 protease (Homo sapiens (Human), UniProt P14902); experiment: Inhibitory activity against human IDO1 protease (absorbance test method); format: biochemical; details: IDO1 (His-tag) enzyme, absorbance at 320 nm
Procedure: 1) Experimental Materials and Apparatus: • IDO1 (His-tag) enzyme (BPS Bioscience) • L-tryptophan (Sigma) • Methylene blue (Sigma) • Catalase originated from the liver of cattle (Sigma) • L-ascorbic acid (Sigma) • Glycerol (Sigma) • Potassium dihydrogen phosphate solution (Sigma) • Tween 20 (Sigma) • Automatic sampling platform Liquid handler (Bravo & Echo) • Microplate Reader SpectraMax M5e (Molecular Devices)
2) Test Method of Compounds: The Compounds are Determined by Absorbance Test Method:
The tested compounds and the reference compounds are dissolved in DMSO to prepare a high concentration of storage solution. The stock solution of reference compound was diluted with DMSO to prepare a 100× solution. In the first column of the working plate, 8 μL above tested compounds and 8 μL 100× reference compound were respectively added as the highest concentration, and then the highest concentrations were subjected to three times dilution to obtain 11 concentrations and prepare 100× solution. 0.5 μL solution was transferred from the above plate to the detection plate. […]. For HPE and ZPE control wells, 0.5 μL 100% DMSO was added.
25 μL 2×IDO1 (His-tag) enzyme solution (containing L-ascorbic acid, methylene blue, and catalase) was added to each well. 25 μL reaction solution without IDO1 (His-tag) enzyme was added into HPE control well. The test plate was centrifugated at 1000 rpm for 1 minute to mix well. Then, the test plate was incubated at room temperature for 30 minutes. 25 μL above 2× substrate (L-tryptophan) solution was added to each well. The test plate was centrifugated at 1000 rpm for 1 minute to mix well. The detection plate was placed on ELISA (SpectraMax M5e), the temperature was set at 25° C., and the absorbance (OD value) was measured at 320 nm every 10 minutes till 60 minutes.
Calculating the increase ratio of absorbance: the slope of the absorbance increase curve from 10 min to 60 min is derived from SpectralMax M5e. The inhibition coefficient of compound was calculated: the inhibition ratio of compound=(the absorbance increase ratio of ZPE control well−the absorbance increase ratio of compound well)/(the absorbance increase ratio of ZPE control well−the absorbance increase ratio of HPE control well)×100. Results was analyzed by Prism 5.0.

[1] = biological target: IDO protease in HeLa cells (Homo sapiens (Human), UniProt P14902); experiment: Inhibition of IDO protease in HeLa cells (IFNγ-induced, Trp/Kyn by RapidFire/MS); format: cell-based; details: for pIC50: HeLa cells, 25 ng/ml IFNγ, 48 hours
IDO protease in HeLa cells, sequence (P14902 whole entry): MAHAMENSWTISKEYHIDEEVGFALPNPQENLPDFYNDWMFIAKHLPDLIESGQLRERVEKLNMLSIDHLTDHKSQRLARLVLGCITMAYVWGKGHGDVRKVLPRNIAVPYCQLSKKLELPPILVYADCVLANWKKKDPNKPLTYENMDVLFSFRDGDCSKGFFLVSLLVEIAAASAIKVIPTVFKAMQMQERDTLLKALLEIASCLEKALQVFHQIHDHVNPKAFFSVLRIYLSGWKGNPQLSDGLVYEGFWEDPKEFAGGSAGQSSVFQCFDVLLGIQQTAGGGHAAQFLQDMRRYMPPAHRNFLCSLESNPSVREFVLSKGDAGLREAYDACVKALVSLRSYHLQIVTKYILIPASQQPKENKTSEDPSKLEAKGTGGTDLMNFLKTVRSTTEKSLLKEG
Text: 1) Experimental Materials and Apparatus • HeLa cells (ATCC, Cat. No. CCL-2) • γ interferon IFNγ (R&D, Cat. No. 285-IF-100) • DMEM High Glucose media (Invitrogen, Cat. No. 11965-084) • Fetal bovine serum FBS (Invitrogen, Cat. No. 10100-147) • Trypsin-EDTA (0.050%)(Invitrogen, Cat. No. 25300-054) • Phosphate buffer solution PBS, pH 7.4 (Invitrogen, Cat. No. 10010023) • Penicillin-Streptomycin (P/S) (Invitrogen, Cat. No. 15070063) • L-tryptophan (Trp) (Sigma, Cat. No. T8941) • L-kynurenine (Kyn) (Sigma, Cat. No. K8625) • N′-diformylkynurenine (NFK) (J&K, Cat. No. F700490) • 3-Nitro-L-tyrosine (J&K, Cat. No. N0905) • Acetonitrile (Sigma, Cat. No. 34851) • Dimethylsulfoxide DMSO (Sigma, Cat. No. D8418) • Inhibitor INCB024360 (Selleckchem, Cat. No. S7910) • Inhibitor INCB024360-analog (MedKoo, Cat. No. 205493) • Inhibitor NLG919 (Selleckchem, Cat. No. S7111) • 96 well transparent flat bottom polystyrene cell culture plate (Corning, Cat #3599) • 96 well V-bottom polypropylene plate (PE, Cat #6008290) • 96 well U-shaped bottom polypropylene plate (PE, Cat. No. 6008390) • Multidrop™ distribution box with small metal tip (Thermo, Cat. No. 24073295) • Multidrop™ distribution box of standard tube with metal tip (Thermo, Cat. No. 24072670) • Automatic filling platform (Agilent) • Multidrop™ Combi automatic liquid separator (Thermo) • Centrifugal machine (Eppendorf) • Cell incubator (Thermo) • Cell counter (Thermo) • RapidFire Mass system (Agilent)
2) Experimental Method for Compound Assay
The compound (compounds 4, 8, 9, 78, 91 of the present invention) was dissolved in DMSO to prepare a solution with a concentration of 3 mM, and then 15 μL of the compound solution is added to a 96 well plate, and serially diluted by 3 times dilution to obtain 10 points. 2 μL compound solution or DMSO (for HPE/ZPE) was transferred to a new 96 well plate. HeLa cell suspension was seeded into the cell culture plate with a density of 1×10^4 cells/well. For HPE control well, the cell culture medium for detection was DMEM, including 10% FBS, 1% P/S, and 122 μM Trp; for ZPE control well and the compound wells, the cell culture medium was DMEM, including 10% FBS, 1% P/S, […], and 25 ng/ml IFNγ. 192 μL detection medium prepared as above was added to a 96 well plate. 78 μL DMEM was added to the compound plate and thoroughly mixed, and then 8 μL compound solution diluted with DMEM was transferred to the 96 well plate containing the detection medium. The cell culture plate was taken out, and the cell culture medium was discarded, then 100 μL compound solution mentioned above was transferred to the cell culture plate. The cell culture plate was moved into the cell incubator and kept for 48 hours. When detected, the cell culture plate was taken out, and 50 μL supernatant was transferred to a new 96 well plate, to which was added 200 μL acetonitrile, and the plate was mixed well. The plate was centrifugated at 4° C. for 20 minutes (rotatory speed being 4000 rpm), and 40 μL supernatant was transferred to another 96 well plate, to which was further added 360 μL deionized water containing […] internal reference (3-nitro-L-tyrosine). The plate was fully mixed, and then the sample was detected by RapidFire/MS system. The standards of L-tryptophan (Trp) and L-kynurenine (Kyn) were dissolved in water to obtain a concentration of 10 mM, and the standard curve was performed by three times dilution. The inhibitory ratio was calculated by obtained data, and the IC50 curve was completed by processing the resultant data with Graphpad Prism5 software.

Pharmacokinetics in mice = format: in vivo, ICR mice; details: for Cmax: read-out: Blood concentration Cmax; for AUC: read-out: Curve area AUC; for Tmax: read-out: Peak time tmax; for MRT inf: read-out: Retention time MRTinf
Text: 1) Experimental Materials and Apparatus: • LC-20AD HPLC system (SHIMADZU, Japan) • API4000 Triple quadrupole mass spectrometer (Applied Biosystem, USA) • PhenixWinnolin Pharmacokinetic software (Version 6.3, Certara, USA) • High speed freezing centrifuge (Thermo Fisher Scientific) • Analytical balance (SECURA225D-1CN) • Experimental animals: ICR mice (Chengdu Dashuo Experimental Animal Co., Ltd) • DMA (Sigma) • CMC-Na (Chengdu Kelong Chemical Co., Ltd) • Heparin (Chengdu Kelong Chemical Co., Ltd)
2) Experimental Methods and Results
A solution at concentration of 0.5 mg/mL was prepared. 0.2 ml of the final solution prepared was taken out and stored at −20° C. for concentration determination. Nine healthy adult ICR mice (20-30 g) were fasted overnight (free drinking water) and then administrated at a dosage of 0.2 mL/10 g by gavage. Prior to administration and 0.5, 1, 2, 4, 6, 8, 12, 24 h after administration, 0.1 mL blood was collected from the posterior orbital venous plexus and centrifuged at 4° C. for 5 min to separate the plasma, which was preserved at −20° C. for testing. Then the concentrations of tested compounds in the plasma were determined by LC/MS/MS.

[2] = ICR, mouse, 10 mg/kg, PO, 10 mpk, plasma

human IDO1 protease, sequence (P14902 whole entry): as above

Row | SMILES | pIC50 (human IDO1 protease) | pIC50 [1] | other results
1 | NS(=O)(=O)N1CC[C@@H](CNc2nonc2/C(=N/O)Nc2ccc(F)c(Br)c2)C1 [Compound 8, (S)—N-(3-Bromo-4-fluorophenyl)-N′-hydroxyl-4-(((1-sulfamoylpyrrolidine-3-yl)methyl)amino)-1,2,5-oxadiazole-3-formamidine] | 6.95 | 7.77 | 
2 | NS(=O)(=O)N1CC(CCNc2nonc2/C(=N/O)Nc2ccc(F)c(Br)c2)C1 [Compound 132, (Z)—N-(3-bromo-4-fluorophenyl)-N′-hydroxyl-4-((2-(1-sulfamoylazetidin-3-yl)ethyl)amino)-1,2,5-oxadiazol-3-formamidine] |  | 8.00 | 
3 | CNS(=O)(=O)N1CC(CNc2nonc2C(=NO)Nc2ccc(F)c(Br)c2)C1 [Compound 78] | 7.16 | 7.89 | 
4 | NS(=O)(=O)N1CC(F)(CNc2nonc2C(=NO)Nc2ccc(F)c(Br)c2)C1 [Compound 91, (Z)—N-(3-bromo-4-fluorophenyl)-4-(3-fluoro-1-sulfadiazin-3-yl)methyl)amino)-N′-hydroxyl 1,2,5-oxadiazol-3-carboxyoximide] |  | 7.13 | 
5 | NC(=O)N1CC(CNc2nonc2/C(=N/O)Nc2ccc(F)c(Br)c2)C1 [Compound 140, (Z)—N-(3-bromo-4-fluorophenyl)-N′-hydroxyl-4-(((1-carbamoylazetidin)-3-methyl)amino)-1,2,5-oxadiazol-3-formamidine] |  | 7.12 | 
6 | NS(=O)(=O)N1CC(CNc2nonc2/C(=N/O)Nc2ccc(F)c(Br)c2)C1 [Compound 4, N-(3-Bromo-4-fluorophenyl)-N′-hydroxyl-4-(((1-sulfamoylazetidin-3-yl)methyl)amino)-1,2,5-oxadiazole-3-formamidine] | 7.26 | 8.30 | half-life time compared with the reference compound INCB-24360 (in words) (Pharmacokinetics in mice): longer half-life time; Cmax (Pharmacokinetics in mice; [2]): 1080 ng/mL; AUC (Pharmacokinetics in mice; [2]): 1760 ng·h/mL; half-life (Pharmacokinetics in mice; ICR, mouse, 10 mg/kg, PO, 10 mpk, plasma, read-out: Half time t1/2 (converted)): 5.06 h; Tmax (Pharmacokinetics in mice; [2]): 0.5 h; MRT inf (Pharmacokinetics in mice; [2]): 3.28 h; inhibitory activities on IDO protease in HeLa cells (in words) [1]: excellent
7 | NS(=O)(=O)N1CC[C@H](CNc2nonc2/C(=N/O)Nc2ccc(F)c(Br)c2)C1 [Compound 9, (R)—N-(3-bromo-4-fluorophenyl)-N′-hydroxyl-4-(((1-sulfamoylpyrrolidine-3-yl)methyl)amino)-1,2,5-oxadiazole-3-formamidine] | 7.08 | 7.82 | 
8 | NS(=O)(=O)N1CC(CSc2nonc2/C(=N/O)Nc2ccc(F)c(Br)c2)C1 [Compound 148] |  | 7.85 | 
9 | NS(=O)(=O)NCCNc1nonc1C(=NO)Nc1ccc(F)c(Br)c1 [INCB24360, reference compound] |  |  | Cmax (Pharmacokinetics in mice; [2]): 992 ng/mL; AUC (Pharmacokinetics in mice; [2]): 1810 ng·h/mL; Tmax (Pharmacokinetics in mice; [2]): 0.5 h; MRT inf (Pharmacokinetics in mice; [2]): 2.03 h
10 | NS(=O)(=O)N1CC(F)(CNc2nonc2/C(=N/O)Nc2ccc(F)c(Br)c2)C1 [Compound 91] | 6.89 |  | inhibitory activities on IDO protease in HeLa cells (in words) [1]: excellent
11 | [2H]C([2H])(Nc1nonc1/C(=N/O)Nc1ccc(F)c(Br)c1)C1CN(S(N)(=O)=O)C1 [Compound 150, (Z)—N-(3-bromo-4-fluorophenyl)-N′-hydroxyl-4-(((1-sulfadiazin-3-yl)methyl-D2)amino)-1,2,5-oxadiazol-3-carboxyoximide] | 7.09 | 8.05 | 
12 | NS(=O)(=O)N1CC(CCSc2nonc2/C(=N/O)Nc2ccc(F)c(Br)c2)C1 [Compound 149, (Z)—N-(3-bromo-4-fluorophenyl)-N′-hydroxyl-4-((2-(1-sulfamoylazetidin-3-yl)ethyl)thio)-1,2,5-oxadiazol-3-formamidine] |  | 7.74 | 
